Data: patent EP3827825A1, “USE OF 3, 4-DIARYLPYRAZOLES AS ANTIBACTERIAL AGENTS” (Wageningen Universiteit, priority 2019, dated 2021)
Values after ≈ are worked out from the molar mass of the structure shown. Like-named read-outs stand apart in the source and are kept apart here.

Columns and labels:
NRK-52E = assay: Cell toxicity, Alamar blue assay, 24 hours exposure; type: cell-based; conditions: for IC50: Rattus norvegicus
Description: (§1) Toxicity was primarily determined by measuring cytotoxicity with the Alamar blue assay. In short, cells (HEK293, NRK-52E and Caco-2) were plated in 96-well plates and cultured overnight. HKI compounds were diluted to concentrations ranging from 0.39 to 500 µg/mL in serum-free medium and added to the cells.
(§2) After exposure, cells were incubated for 24 hours. Experiments were mostly performed by single measurement. […] After 24 hours HKIs were removed from the cells and Alamar blue was added, incubated for 45 minutes and fluorescence was measured on a spectrophotometer. Alamar blue measures the conversion of blue, low fluorescent resazurin into high fluorescent pink resorufin. This conversion can only be made in viable mitochondria in viable cells and therefore this dye provides a measure for cytotoxicity.

HEK293 = assay: as above; type: cell-based; conditions: Homo sapiens
Description: as §1, §2

S. aureus Newman = assay: Minimal inhibitory concentration (MIC), double-dilution in broth, OD600; type: cell-based, Staphylococcus aureus Newman; conditions: unit assumed
Description: (§3) In short, a stock solution of 5 mg/mL of HKIs in DMSO was made. This stock was diluted to 50 µg/mL in broth in a 96 well plate. Dilutions were made (factor 2) directly in the plate with a multi-channel pipet. Bacteria cultured in suspension overnight were then added to the plate (except negative control) and the plate was incubated for 24 hours. After 24 hours the OD600 was measured using a spectrophotometer. A positive control (with bacteria, without HKI) was also measured on each plate.
Bacterial strains used in this study for antibacterial susceptibility testing (Table S2) were propagated using standard microbiological procedures. Minimal inhibitory concentrations (MICs) were determined following a standard double-dilution method (42), 73. […] For M. marinum, MICs were determined in Middlebrook 7H9 broth (Difco) and MICs were determined after 3 days incubation at 30 °C.
(§4) Grow the bacterial colonies to be tested from single colonies on an agar plate in LB broth or suitable bacterial growth medium overnight at 37°C. Prepare a 5 mg/mL stock solution of compounds to be tested in DMSO. One 96-well plate per bacterial strain was prepared. First, put 50 uL of medium to each well. Add 48 µL of medium to all wells in row A. Pipet 2 µL of antimicrobial master stock into the top well (row A). Beware, the antimicrobial concentration will be diluted 2x after adding the bacterial culture. Total volume in each well will be 100 µL. In A11, pipet 2 µL of DMSO. Make a serial dilution from row A to row H, pipetting 50 µL from the previous row into the new one. Mix well by pipetting up and down. Discard the last 50 µL so that there is 50 µl in each well In a clean, new plastic pipetting cup, dilute the overnight bacterial culture 100 times. Add 100 µL of bacterial overnight culture to 9900 µL of medium. Mix the suspension well. Once the serial dilutions are complete for all antimicrobial compounds, add 50 µL of diluted overnight bacterial culture to each well (except column 12). Mix by pipetting or put the plate on the shaker. Per 2 plates, close with parafilm around the edges and place in the incubator overnight. After overnight culturing, measure bacterial growth on the SpectraMax. The lowest concentration where no growth is observed is the MIC. To determine the MIB pipette 5 µL from each well of the 96 well plate where now growth was observed on to an LB agar plate, without antimicrobial. Put the plates in the incubator to grow overnight. The minimal concentration where no growth can be seen on the agar plate is the MBC.

E. faecium Van A = assay: as above; type: cell-based, Enterococcus faecium; conditions: unit assumed
Description: as §3, with “each plate. The MICs were not determined in duplo/triplicate in the same experiment, however, the MICs of several HKIs were measured in different experiments and no major differences (max. 1x dilution) were found in the MICs between the experiments.” for “each plate.”
(§5) Bacterial strains used in this study for antibacterial susceptibility testing (Table S2) were propagated using standard microbiological procedures. Minimal inhibitory concentrations (MICs) were determined following a standard double-dilution method (42), 73. MICs were recorded as the lowest concentration of the compound where no visible growth was observed. After plating the dilutions around the MIC or growing them in fresh MH media, minimal bactericidal concentration (MBC) was recorded as the lowest concentration of the compound at which no colonies were formed or no growth was observed, respectively. For M. marinum, MICs were determined in Middlebrook 7H9 broth (Difco) and MICs were determined after 3 days incubation at 30 °C.
as §4

M. marinum = assay: Minimal inhibitory concentration (MIC), Middlebrook 7H9 broth, 3 days at 30 °C; type: cell-based, Mycobacterium marinum; conditions: unit assumed
Description: as §3, with “each plate. The MICs were not determined in duplo/triplicate in the same experiment, however, the MICs of several HKIs were measured in different experiments and no major differences (max. 1x dilution) were found in the MICs between the experiments.” for “each plate.”
as §5, §4

P. multocida = assay: Minimal inhibitory concentration (MIC), double-dilution in broth, OD600; type: cell-based, Pasteurella multocida; conditions: unit assumed
Description: as §3, with “each plate. The MICs were not determined in duplo/triplicate in the same experiment, however, the MICs of several HKIs were measured in different experiments and no major differences (max. 1x dilution) were found in the MICs between the experiments.” for “each plate.”
as §5, §4

S. suis = assay: as above; type: cell-based, Streptococcus suis; conditions: unit assumed
Description: as §3, with “each plate. The MICs were not determined in duplo/triplicate in the same experiment, however, the MICs of several HKIs were measured in different experiments and no major differences (max. 1x dilution) were found in the MICs between the experiments.” for “each plate.”
as §5, §4

E. coli JW5503 = type: cell-based, Escherichia coli; conditions: unit assumed
Description: as §3, with “each plate. The MICs were not determined in duplo/triplicate in the same experiment, however, the MICs of several HKIs were measured in different experiments and no major differences (max. 1x dilution) were found in the MICs between the experiments.” for “each plate.”
as §5, §4

[1] = read-out: IC50 NRK-52E (50 mg/mL stock)
[2] = HEK293, read-out: IC50 HEK293 (5 mg/mL stock)
[3] = HEK293, read-out: IC50 HEK293 (50 mg/mL stock)

Row | Compound | IC50 (NRK-52E; read-out: IC50 NRK-52E (50 mg/mL stock), 50 mg/mL stock) [µg/mL] | IC50 (HEK293; read-out: IC50 HEK293 (50 mg/mL stock), HEK293, 50 mg/mL stock) [µg/mL] | MIC S. aureus Newman (S. aureus Newman) [µg/mL] | MIC E. faecium Van A (E. faecium Van A) [µg/mL] | MIC M. marinum (M. marinum) [µg/mL] | MIC P. multocida (P. multocida) [µg/mL] | MIC S. suis (S. suis) [µg/mL] | IC50 (NRK-52E; [1]) [µg/mL] | IC50 (HEK293; [2]) [µg/mL] | IC50 (HEK293; [3]) [µg/mL] | MIC E. coli JW5503 (E. coli JW5503) [µg/mL] | IC50 NRK-52E (50 mg/mL stock) (NRK-52E; 50 mg/mL stock)
1 | NNC(=O)COc1ccc(-c2n[nH]c(C(F)(F)F)c2-c2ccc(Cl)cc2)c(O)c1 [Sep-24, 2-[4-[4-(4-chlorophenyl)-5-(trifluoromethyl)-1∼{H}-pyrazol-3-yl]-3-hydroxy-phenoxy]acetohydr azide] | 104 (≈ 243 µM) | 119 (≈ 279 µM) | 50 (≈ 117 µM) | 50 (≈ 117 µM) | > 50 | > 50 | > 50 | – | – | – | – | –
2 | CCOc1ccc(-c2[nH]nc(C(F)(F)F)c2-c2ccc(OC)c(OC)c2)c(O)c1 [May-3, 2-[4-(3,4-dimethoxyphenyl)-5-(trifluoromethyl)-1∼{H}-pyrazol-3-yl]-5-ethoxy-phenol] | – | – | 12.5 (≈ 30.6 µM) | – | 25 (≈ 61.2 µM) | > 50 | 12.5 (≈ 30.6 µM) | ~0.8 (≈ 1.96 µM) | 6.69 (≈ 16.4 µM) | – | – | –
3 | CCOc1ccc(-c2n[nH]c(C(F)(F)F)c2-c2ccccc2)c(O)c1 [May-22, 5-ethoxy-2-[4-phenyl-5-(trifluoromethyl)-1∼{H}-pyrazol-3-yl]phenol] | – | – | 3.13 (≈ 8.99 µM) | > 50 | > 50 | 50 (≈ 144 µM) | 6.25 (≈ 17.9 µM) | 19.2 (≈ 55 µM) | 5.8 (≈ 16.7 µM) | 19.9 (≈ 57.1 µM) | – | –
4 | O=[N+]([O-])c1ccc(COc2ccc(-c3[nH]nc(C(F)(F)F)c3-c3ccccc3)c(O)c2)cc1 [Sep-18, 5-(4-nitrobenzyl)oxy-2-[4-phenyl-5-(trifluoromethyl)-1∼{H}-pyrazol-3-yl]phenol] | – | – | 6.25 (≈ 13.7 µM) | 12.5 (≈ 27.4 µM) | > 50 | > 50 | 12.5 (≈ 27.4 µM) | ~14.7 (≈ 32.3 µM) | – | – | 12.5 (≈ 27.4 µM) | –
5 | Oc1ccc(-c2onc(C(F)(F)F)c2-c2ccc(Cl)cc2)c(O)c1 [AND-2, 4-[4-(4-chlorophenyl)-3-(trifluoromethyl)isoxazol-5-yl]resorcinol] | – | – | 3.13 (≈ 8.8 µM) | 6.25 (≈ 17.6 µM) | > 50 | 25 (≈ 70.3 µM) | 12.5 (≈ 35.1 µM) | ~3.88 (≈ 10.9 µM) | 6.97 (≈ 19.6 µM) | 36.7 (≈ 103 µM) | – | –
6 | CCOc1ccc(-c2n[nH]c(C(F)(F)F)c2-c2ccc(OC)cc2)c(O)c1 [May-7, 5-ethoxy-2-[4-(4-methoxyphenyl)-5-(trifluoromethyl)-1∼{H}-pyrazol-3-yl]phenol] | – | – | 6.25 (≈ 16.5 µM) | – | 50 (≈ 132 µM) | > 50 | 6.25 (≈ 16.5 µM) | ~31.1 (≈ 82.3 µM) | 5.68 (≈ 15 µM) | 231 (≈ 610 µM) | – | –
7 | COc1ccccc1-c1c(-c2ccc(OCC=C(C)C)cc2O)n[nH]c1C(F)(F)F [Sep-30, 2-[4-(2-methoxyphenyl)-5-(trifluoromethyl)-1∼{H}-pyrazol-3-yl]-5-(3-methylbut-2-enoxy)phenol] | – | – | 6.25 (≈ 14.9 µM) | 12.5 (≈ 29.9 µM) | > 50 | > 50 | 25 (≈ 59.7 µM) | ~17.2 (≈ 41.2 µM) | – | – | 6.25 (≈ 14.9 µM) | –
8 | COc1ccc(-c2c(-c3ccc(O)cc3O)n[nH]c2C(F)(F)F)cc1 [May-9, 4-[4-(4-methoxyphenyl)-5-(trifluoromethyl)-1∼{H}-pyrazol-3-yl]resorcinol] | – | – | 12.5 (≈ 35.7 µM) | 25 (≈ 71.4 µM) | > 50 | 50 (≈ 143 µM) | 12.5 (≈ 35.7 µM) | ~3.15 (≈ 8.99 µM) | – | – | 3.13 (≈ 8.94 µM) | –
9 | Oc1ccc(-c2n[nH]c(C(F)(F)F)c2-c2ccc(Br)cc2)c(O)c1 [Sep-20, 4-[4-(4-bromophenyl)-5-(trifluoromethyl)-1∼{H}-pyrazol-3-yl]resorcinol] | – | – | 6.25 (≈ 15.7 µM) | 25 (≈ 62.6 µM) | > 50 | > 50 | 25 (≈ 62.6 µM) | – | – | – | 6.25 (≈ 15.7 µM) | 7.58
10 | COc1ccc(-c2c(-c3ccc(OC)c(C)c3O)n[nH]c2C(F)(F)F)cc1 [Sep-1, 3-methoxy-6-[4-(4-methoxyphenyl)-5-(trifluoromethyl)-1∼{H}-pyrazol-3-yl]-2-methyl-phenol] | – | – | 25 (≈ 66.1 µM) | 50 (≈ 132 µM) | > 50 | > 50 | 50 (≈ 132 µM) | 23.2 (≈ 61.3 µM) | – | – | 6.25 (≈ 16.5 µM) | –
11 | COc1ccc(-c2c(C(F)(F)F)n[nH]c2-c2ccc(OCc3ccc(F)cc3)cc2O)cc1 [Sep-14, 5-(4-fluorobenzyl)oxy-2-[4-(4-methoxyphenyl)-5-(trifluoromethyl)-1∼{H}-pyrazol-3-yl]phenol] | – | – | 12.5 (≈ 27.3 µM) | 12.5 (≈ 27.3 µM) | > 50 | > 50 | 25 (≈ 54.5 µM) | ~16.6 (≈ 36.3 µM) | – | – | 25 (≈ 54.5 µM) | –
12 | Cc1[nH]nc(-c2ccc(O)cc2O)c1-c1ccc(Br)cc1 [May-1, 4-[4-(4-bromophenyl)-5-methyl-1∼{H}-pyrazol-3-yl]resorcinol] | – | – | 12.5 (≈ 36.2 µM) | 12.5 (≈ 36.2 µM) | 50 (≈ 145 µM) | 12.5 (≈ 36.2 µM) | 6.25 (≈ 18.1 µM) | 5.95 (≈ 17.2 µM) | – | – | 3.13 (≈ 9.07 µM) | –
13 | COc1ccc(-c2c(-c3ccc(OCc4ccc(C)cc4)cc3O)n[nH]c2C(F)(F)F)cc1OC [Sep-27, 2-[4-(3,4-dimethoxyphenyl)-5-(trifluoromethyl)-1∼{H}-pyrazol-3-yl]-5-(4-methylbenzyl)oxy-phenol] | – | – | 3.13 (≈ 6.46 µM) | > 50 | 50 (≈ 103 µM) | > 50 | 50 (≈ 103 µM) | ~17.6 (≈ 36.3 µM) | – | – | > 50 | –
14 | COc1ccccc1-c1c(C(F)(F)F)n[nH]c1-c1ccc(OCc2ccccc2)cc1O [Sep-17, 5-benzoxy-2-[4-(2-methoxyphenyl)-5-(trifluoromethyl)-1∼{H}-pyrazol-3-yl]phenol] | – | – | 6.25 (≈ 14.2 µM) | 12.5 (≈ 28.4 µM) | > 50 | > 50 | 25 (≈ 56.8 µM) | ~8.97 (≈ 20.4 µM) | – | – | 12.5 (≈ 28.4 µM) | –
15 | COc1ccc(-c2c(C(F)(F)F)n[nH]c2-c2ccc(OCc3ccc([N+](=O)[O-])cc3)cc2O)cc1 [Sep-6, 2-[4-(4-methoxyphenyl)-5-(trifluoromethyl)-1∼{H}-pyrazol-3-yl]-5-(4-nitrobenzyl)oxyphenol] | – | – | 3.13 (≈ 6.45 µM) | 6.25 (≈ 12.9 µM) | 50 (≈ 103 µM) | > 50 | 12.5 (≈ 25.8 µM) | 8.42 (≈ 17.3 µM) | – | – | 12.5 (≈ 25.8 µM) | –
